Earlier results on 3 compounds are cited in patent US5747458A, “Urokinase receptor ligands” (Chiron Corporation, priority 1995, dated 1998).

One data set addresses uPA:uPAR interaction (Homo sapiens, UniProt Q03405).
The next data set deals with uPAR (Homo sapiens, UniProt Q03405).
uPAR, sequence (Q03405 23-335, species assumed): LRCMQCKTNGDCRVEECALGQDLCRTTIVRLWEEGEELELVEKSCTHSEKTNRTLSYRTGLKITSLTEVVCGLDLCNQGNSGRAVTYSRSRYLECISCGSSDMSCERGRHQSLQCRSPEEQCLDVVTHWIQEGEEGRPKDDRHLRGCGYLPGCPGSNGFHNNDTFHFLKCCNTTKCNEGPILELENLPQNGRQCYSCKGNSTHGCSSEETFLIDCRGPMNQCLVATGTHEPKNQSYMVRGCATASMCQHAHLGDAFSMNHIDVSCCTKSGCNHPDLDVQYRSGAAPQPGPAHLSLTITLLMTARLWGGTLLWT

uPA:uPAR interaction, sequence (Q03405 23-305 limits assumed): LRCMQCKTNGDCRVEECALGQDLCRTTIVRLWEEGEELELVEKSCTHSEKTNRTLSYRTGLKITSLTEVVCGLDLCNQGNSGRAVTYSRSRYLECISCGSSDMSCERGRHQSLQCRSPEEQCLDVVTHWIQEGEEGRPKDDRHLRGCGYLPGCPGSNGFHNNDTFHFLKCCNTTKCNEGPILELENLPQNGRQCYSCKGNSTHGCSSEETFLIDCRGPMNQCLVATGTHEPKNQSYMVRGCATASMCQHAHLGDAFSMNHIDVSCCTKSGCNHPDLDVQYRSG

Take `O=S(=O)(O)c1cccc2cccc(Nc3ccccc3)c12` [8-anilinonaphthalene sulfonic acid]: the “effective concentration for inhibiting the uPA:uPAR interaction” value on uPA:uPAR interaction is reported as “effective only at micromolar concentrations”.
`Cc1ccc(C(=O)Nc2ccc(S(=O)(=O)O)c3cc(S(=O)(=O)O)cc(S(=O)(=O)O)c23)cc1NC(=O)c1cccc(NC(=O)Nc2cccc(C(=O)Nc3cc(C(=O)Nc4ccc(S(=O)(=O)O)c5cc(S(=O)(=O)O)cc(S(=O)(=O)O)c45)ccc3C)c2)c1` [suramin]: the “effective concentration for inhibiting the uPA:uPAR interaction” value on uPA:uPAR interaction is “effective only at micromolar concentrations”.
In the case of “uPA12-32: critical binding domain alone, residues 12-32 of the EGF-like domain of uPA (DCLNGGTCVSNKYFSNIHWCN; UniProt P00749 32-52, looked up, fragment)”, in the data set with uPAR (compared with intact ATF), the “affinity relative to intact ATF (fold less)” value is “about 100 fold”. Besides, in the data set with uPAR (read-out: affinity for uPAR), the Kd was 40 nM.
